Test results: publication PMC11602716 (Nature, 2024)

Legend:
[1] = tested on: mice; test: Saccharin-conditioned taste avoidance; type: in vivo, mouse; settings: 0.15% saccharin, s.c. 325 nmol kg^−1 EB1002 or 10 nmol kg^−1 semaglutide, n = 10 per group
[2] = tested on: NK1R, NK2R and NK3R; settings: cited from earlier work
[3] = tested on: humans; settings: cited from earlier work

Molecule	average weight loss [3]	other results
CC[C@H](C)[C@H](NC(=O)[C@H](Cc1ccccc1)NC(=O)[C@H](CCC(=O)O)NC(=O)[C@H](CCCCNC(=O)COCCOCCNC(=O)COCCOCCNC(=O)CC[C@H](NC(=O)CCCCCCCCCCCCCCCCC(=O)O)C(=O)O)NC(=O)[C@H](C)NC(=O)[C@H](C)NC(=O)[C@H](CCC(N)=O)NC(=O)CNC(=O)[C@H](CCC(=O)O)NC(=O)[C@H](CC(C)C)NC(=O)[C@H](Cc1ccc(O)cc1)NC(=O)[C@H](CO)NC(=O)[C@H](CO)NC(=O)[C@@H](NC(=O)[C@H](CC(=O)O)NC(=O)[C@H](CO)NC(=O)[C@@H](NC(=O)[C@H](Cc1ccccc1)NC(=O)[C@@H](NC(=O)CNC(=O)[C@H](CCC(=O)O)NC(=O)C(C)(C)NC(=O)[C@@H](N)Cc1cnc[nH]1)[C@@H](C)O)[C@@H](C)O)C(C)C)C(=O)N[C@@H](C)C(=O)N[C@@H](Cc1c[nH]c2ccccc12)C(=O)N[C@@H](CC(C)C)C(=O)N[C@H](C(=O)N[C@@H](CCCNC(=N)N)C(=O)NCC(=O)N[C@@H](CCCNC(=N)N)C(=O)NCC(=O)O)C(C)C [semaglutide]	–	conditioned taste avoidance [1]: aversive
neurokinin A (4–10)-S5K/L9mL/M10Nle	–	NK2R selectivity [2]: some degree of selectivity
retatrutide	up to 22.1%	–
survodutide	up to 14.9%	–
